Laboratory results as given in patent US11299478B2, “2-cyanopyrimidin-4-yl carbamate or urea derivative or salt thereof, and pharmaceutical composition including same” (HANLIM PHARMACEUTICAL CO., LTD., priority 2018, dated 2022).

Tests used:
Assay type in all cases: biochemical
cathepsin K = target: T1, cathepsin K (Homo sapiens, UniProt P43235); test: Inhibitory activity assay against cathepsin K (enzyme assay); details: Z-Phe-Arg-AMC 10 μM, enzyme 1 nM, pH 5.5, 30 minutes
T1 sequence (P43235 115-329): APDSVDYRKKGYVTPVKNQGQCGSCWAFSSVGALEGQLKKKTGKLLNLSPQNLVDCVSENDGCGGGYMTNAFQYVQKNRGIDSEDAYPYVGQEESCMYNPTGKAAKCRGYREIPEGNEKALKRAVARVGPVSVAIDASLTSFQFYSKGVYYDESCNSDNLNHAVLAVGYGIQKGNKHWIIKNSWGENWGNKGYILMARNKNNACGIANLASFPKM
How it was run: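 IC50 by 4-parameter logistic fit of fluorescence (ex 355 nm, em 460 nm) after 30 min reaction. Compound tested at 10 final concentrations from 10.0 μM down to 0.000508 μM against 1 nM enzyme and 10 μM Z-Phe-Arg-AMC, in MES buffer pH 5.5 with DTT, EDTA, Triton X-100 and 10% DMSO.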

cathepsin L = cathepsin L (Homo sapiens, UniProt P07711); test: Inhibitory activity assay against cathepsin L (enzyme assay); details: Z-Phe-Arg-AMC 2 μM, enzyme 3 nM, pH 5.5, 30 minutes
How it was run: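 IC50s came from 4-parameter logistic fits of ten concentrations (10.0 μM down to 0.000508 μM). Reaction: 30 min, 3 nM enzyme, 2 μM Z-Phe-Arg-AMC, pH 5.5 MES buffer containing DTT, EDTA, Polysorbate 20 and 10% DMSO; fluorescence read 340/460 nm.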

cathepsin B = cathepsin B (Homo sapiens, UniProt P07858); test: Inhibitory activity assay against cathepsin B (enzyme assay); details: Z-Arg-Arg-AMC 40 μM, enzyme 1 nM, pH 6.0, 90 minutes
How it was run: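 Reaction run 90 min in MES buffer pH 6.0 containing DTT, EDTA, Polysorbate 20 and 10% DMSO, using 40 μM fluorogenic Z-Arg-Arg-AMC and 1 nM cathepsin B. Ten compound levels from 10.0 μM; AMC fluorescence at ex 340/em 460 nm fitted to a 4-parameter logistic for IC50.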

cathepsin S = cathepsin S (Homo sapiens, UniProt P25774); test: Inhibitory activity assay against cathepsin S (enzyme assay); details: Z-Phe-Arg-AMC 70 μM, enzyme 3 nM, pH 6.5, 45 minutes
How it was run: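 Ten-point compound titration (10.0 to 0.000508 μM final) reacted 45 min with 3 nM cathepsin S and 70 μM Z-Phe-Arg-AMC in MES 50 mM pH 6.5, DTT 2.5 mM, EDTA 1.0 mM, BSA 0.001%, DMSO 10%. AMC release read at 340/460 nm; IC50 from four-parameter logistic fit.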

Chain of cathepsin S (P25774 115-331, species assumed): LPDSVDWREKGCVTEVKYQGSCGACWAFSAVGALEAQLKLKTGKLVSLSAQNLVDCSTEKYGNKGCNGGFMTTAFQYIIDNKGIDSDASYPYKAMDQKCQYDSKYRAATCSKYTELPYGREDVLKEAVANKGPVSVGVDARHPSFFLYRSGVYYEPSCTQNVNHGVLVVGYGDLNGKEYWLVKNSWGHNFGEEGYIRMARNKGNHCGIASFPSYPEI
Chain of cathepsin L (P07711 114-333, species assumed): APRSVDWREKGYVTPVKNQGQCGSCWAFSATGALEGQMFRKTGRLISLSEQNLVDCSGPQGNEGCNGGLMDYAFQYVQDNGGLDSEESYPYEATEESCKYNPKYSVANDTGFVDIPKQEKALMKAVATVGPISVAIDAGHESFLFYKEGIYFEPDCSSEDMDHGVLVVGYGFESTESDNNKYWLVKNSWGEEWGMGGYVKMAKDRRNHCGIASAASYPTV

Structure (SMILES) | IC50 (cathepsin K) [nM] | IC50 (cathepsin L) [nM] | IC50 (cathepsin B) [nM] | IC50 (cathepsin S) [nM]
N#Cc1nccc(C2(NC(=O)Nc3ccc(-c4ccc(CCC(=O)O)cc4)cc3)CCCCC2)n1 [Example 131, 3-(4′-(3-(1-(2-cyanopyrimidin-4-yl)cyclohexyl)ureido)-[1,1′-biphenyl]-4-yl)propanoic acid] | 15.9 | > 10000 | > 10000 | 3930
CC(=O)N1CCN(c2ccc(-c3ccc(NC(=O)NC4(c5ccnc(C#N)n5)CCCCC4)cc3)cc2)CC1 [Example 155, 1-(4′(4-acetylpiperazin-1-yl)-[1,1′-biphenyl]-4-yl)-3-(1-(2-cyanopyrimidin-4-yl)cyclohexyl)urea] | 2 | > 10000 | 7340 | > 10000
CN(C)CCNC(=O)c1ccc(-c2ccc(NC(=O)NC3(c4ccnc(C#N)n4)CCCCC3)cc2)cc1 [Example 159, 4′-(3-(1-(2-cyanopyrimidin-4-yl)cyclohexyl)ureido)-N-(2-(dimethylamino)ethyl)-[1,1′-biphenyl]-4-carboxamide] | 0.6 | 4090 | 1890 | > 10000
N#Cc1nccc(C2(NC(=O)Nc3ccc(C#Cc4ccc(CO)cc4)cc3)CCCCC2)n1 [Example 183, 1-(1-(2-cyanopyrimidin-4-yl)cyclohexyl)-3-(4-((4-(hydroxymethyl)phenyl)ethynyl)phenyl)urea] | 22 | > 10000 | > 10000 | > 10000
CNCCOc1ccc(-c2ccc(NC(=O)NC3(c4ccnc(C#N)n4)CCCCC3)cc2)cc1 [Example 191, 1-(1-(2-cyanopyrimidin-4-yl)cyclohexyl)-3-(4′-(2-(methylamino)ethoxy)-[1,1′-biphenyl]-4-yl)urea] | 0.1 | > 10000 | 4760 | > 10000
COc1ccc(-c2ccc(NC(=O)NC3(c4ccnc(C#N)n4)CCCCC3)cc2)cn1 [Example 127, 1-(1-(2-cyanopyrimidin-4-yl)cyclohexyl)-3-(4-(6-methoxypyridin-3-yl)phenyl)urea] | 10.9 | > 10000 | > 10000 | > 10000
N#Cc1nccc(C2(NC(=O)OCc3cccc4ccccc34)CCCCC2)n1 [Example 26, naphthalen-1-ylmethyl (1-(2-cyanopyrimidin-4-yl)cyclohexyl)carbamate] | 61.7 | 5950 | > 10000 | > 10000
N#Cc1nccc(C2(NC(=O)Nc3cc(C(F)(F)F)ccc3C(F)(F)F)CCCCC2)n1 [Example 103, 1-(2,5-bis(trifluoromethyl)phenyl)-3-(1-(2-cyanopyrimidin-4-yl)cyclohexyl)urea] | 4.6 | > 10000 | > 10000 | > 10000
N#Cc1nccc(C2(NC(=O)Nc3ccc4nccnc4c3)CCCC2)n1 [Example 77, 1-(1-(2-cyanopyrimidin-4-yl)cyclopentyl)-3-(quinoxalin-6-yl)urea] | 95.1 | > 10000 | > 10000 | > 10000
N#Cc1nccc(C2(NC(=O)Nc3ccc(I)cc3)CCCCC2)n1 [Example 132, 1-(1-(2-cyanopyrimidin-4-yl)cyclohexyl)-3-(4-iodophenyl)urea] | 15.9 | > 10000 | > 10000 | > 10000
CN(C)C1CCN(c2ccc(NC(=O)NC3(c4ccnc(C#N)n4)CCCCC3)cc2)CC1 [Example 141, 1-(1-(2-cyanopyrimidin-4-yl)cyclohexyl)-3-(4-(4-(dimethylamino)piperidin-1-yl)phenyl)urea] | 4.5 | > 10000 | > 10000 | > 10000
N#Cc1nccc(C2(NC(=O)Nc3ccc(-c4cccc(F)c4)cc3)CCCCC2)n1 [Example 123, 1-(1-(2-cyanopyrimidin-4-yl)cyclohexyl)-3-(3′-fluoro-[1,1′-biphenyl]-4-yl)urea] | 10.2 | > 10000 | > 10000 | > 10000
N#Cc1nccc(C2(NC(=O)Nc3ccc(-c4ccc(F)cc4)cc3)CCCCC2)n1 [Example 121, 1-(1-(2-cyanopyrimidin-4-yl)cyclohexyl)-3-(4′-fluoro-[1,1′-biphenyl]-4-yl)urea] | 17.2 | > 10000 | > 10000 | > 10000
CS(=O)(=O)c1ccc(-c2ccc(NC(=O)NC3(c4ccnc(C#N)n4)CCCCC3)cc2)cc1 [Example 116, 1-(1-(2-cyanopyrimidin-4-yl)cyclohexyl)-3-(4′-(methylsulfonyl)-[1,1′-biphenyl]-4-yl)urea] | 2.1 | > 10000 | > 10000 | > 10000
N#Cc1nccc(C2(NC(=O)Nc3ccc(-c4ccc(S(N)(=O)=O)cc4)cc3)CCCCC2)n1 [Example 173, 4′-(3-(1-(2-cyanopyrimidin-4-yl)cyclohexyl)ureido)-[1,1′-biphenyl]-4-sulfonamide] | 13.8 | > 10000 | > 10000 | > 10000
CCN1CCN(c2ccc(-c3ccc(NC(=O)NC4(c5ccnc(C#N)n5)CCCCC4)cc3)cc2)CC1 [Example 160, 1-(1-(2-cyanopyrimidin-4-yl)cyclohexyl)-3-(4′-(4-ethylpiperazin-1-yl)-[1,1′-biphenyl]-4-yl)urea] | 0.1 | 8810 | 1840 | > 10000
N#Cc1nccc(C2(NC(=O)Nc3cc(C(F)(F)F)c(F)cc3F)CCCCC2)n1 [Example 106, 1-(1-(2-cyanopyrimidin-4-yl)cyclohexyl)-3-(2,4-difluoro-5-(trifluoromethyl)phenyl)urea] | 3.1 | > 10000 | > 10000 | > 10000
COCc1ccc(C(F)(F)F)cc1NC(=O)NC1(c2ccnc(C#N)n2)CCCCC1 [Example 107, 1-(1-(2-cyanopyrimidin-4-yl)cyclohexyl)-3-(2-(methoxymethyl)-5-(trifluoromethyl)phenyl)urea] | 6.8 | 1470 | > 10000 | 4750
CN(C(=O)NC1(c2ccnc(C#N)n2)CCCCC1)c1ccc(F)c(C(F)(F)F)c1 [Example 105, 3-(1-(2-cyanopyrimidin-4-yl)cyclohexyl)-1-(4-fluoro-3-(trifluoromethyl)phenyl)-1-methylurea] | 2.1 | 2980 | > 10000 | 3630
CN1CCN(c2ccc(NC(=O)NC3(c4ccnc(C#N)n4)CCCCC3)cc2)CC1 [Example 138, 1-(1-(2-cyanopyrimidin-4-yl)cyclohexyl)-3-(4-(4-methylpiperazin-1-yl)phenyl)urea] | 5.8 | 4200 | > 10000 | ≥ 10000
N#Cc1nccc(C2(NC(=O)OCc3cccc(-c4ccc(F)nc4)c3)CCCC2)n1 [Example 35, 3-(6-fluoropyridin-3-yl)benzyl (1-(2-cyanopyrimidin-4-yl)cyclopentyl)carbamate] | 492 | > 10000 | > 10000 | > 10000
N#Cc1nccc(C2(NC(=O)Nc3cc(F)ccc3C(F)(F)F)CCCC2)n1 [Example 67, 1-(1-(2-cyanopyrimidin-4-yl)cyclopentyl)-3-(5-fluoro-2-(trifluoromethyl)phenyl)urea] | 64.6 | > 10000 | > 10000 | > 10000
Cc1ccc(COC(=O)NC2(c3ccnc(C#N)n3)CCCCC2)cc1 [Example 22, 4-methylbenzyl (1-(2-cyanopyrimidin-4-yl)cyclohexyl)carbamate] | 37.2 | > 10000 | > 10000 | > 10000
CS(=O)(=O)c1ccc(-c2ccc(COC(=O)NC3(c4ccnc(C#N)n4)CCCC3)cc2)cc1 [Example 29, (4′-(methylsulfonyl)-[1,1′-biphenyl]-4-yl)methyl (1-(2-cyanopyrimidin-4-yl)cyclopentyl)carbamate] | 1570 | > 10000 | > 10000 | > 10000
CC(=O)Nc1ccc(-c2ccc(NC(=O)NC3(c4ccnc(C#N)n4)CCCCC3)cc2)cc1 [Example 129, N-(4′-(3-(1-(2-cyanopyrimidin-4-yl)cyclohexyl)ureido)-[1,1′-biphenyl]-4-yl)acetamide] | 4.9 | > 10000 | > 10000 | > 10000
